Experimental data taken from ChEMBL document CHEMBL3507680, “University of Dundee, Gates Library screen for HepG2 cell viability”.

Assay: Human HepG2 cell viability assay in 384 well format
Format: toxicity, cell-based
Set-up: dose 125 nL, time 70.5 hour; cytotoxicity at 70.5 h: concentration not given beside the values
Conditions: HepG2 cells, read-out: Inhibition

CC(CCNC(=O)N(C)CC1CCOCC1)N1CCCCC1 (stereo unspecified)
cytotoxicity at 70.5 h: -7.97%

O=C(Nc1ccc(-n2cccn2)c(F)c1)C1CCN(C(=O)C2CC2)CC1
cytotoxicity at 70.5 h: -0.357%

CC(=O)N(C)CC(=O)Nc1ccc(C)cc1OCc1ccccc1
cytotoxicity at 70.5 h: -1.76%

Cc1ccc(-c2n[nH]cc2CNCC2CCS(=O)(=O)C2)o1 (stereo unspecified)
cytotoxicity at 70.5 h: 11.2%

CC(=O)NCCCC(=O)NC1(c2ccc(Cl)c(Cl)c2)CC1
cytotoxicity at 70.5 h: 2.93%

CS(=O)(=O)NCC(=O)NC1(c2ccc(Cl)c(Cl)c2)CC1
cytotoxicity at 70.5 h: -2.05%

Cc1cc(C2CCCN2c2ncc(C(N)=O)cc2Cl)no1 (stereo unspecified)
cytotoxicity at 70.5 h: -0.208%

CCS(=O)(=O)CC(=O)NC1(c2ccc(Cl)c(Cl)c2)CC1
cytotoxicity at 70.5 h: -2.35%

Cn1cc(C2CCCN2c2ncnc3[nH]ccc23)cn1 (stereo unspecified)
cytotoxicity at 70.5 h: 5.41%

Cc1nn(C)c(C)c1C1CCCN1c1ncnc2[nH]ccc12 (stereo unspecified)
cytotoxicity at 70.5 h: 0.0825%

COc1ccc(C(=O)NCCCC2(C3OCCO3)CCOCC2)cc1
cytotoxicity at 70.5 h: -1.34%

CN(C(=O)Nc1ccccn1)C1CCCN(c2ccccc2)C1=O (stereo unspecified)
cytotoxicity at 70.5 h: 3.77%

CCN(CCCNc1ncnc2cc(F)c(F)cc12)S(C)(=O)=O
cytotoxicity at 70.5 h: -1.36%

N#Cc1cnc(NCCCN2C(=O)COc3ccccc32)c(Cl)c1
cytotoxicity at 70.5 h: 2.01%

COc1c(NC(=O)C(C)CCOc2ccccc2)c(C)nn1C (stereo unspecified)
cytotoxicity at 70.5 h: 7.42%

Cc1nn(C)c(Cl)c1C1CCCN1c1ncnc2[nH]ccc12 (stereo unspecified)
cytotoxicity at 70.5 h: 12.9%

C1CCCN(c2nc(C3CC3)no2)CC1
cytotoxicity at 70.5 h: 1.49%

CC(C)c1nsc(N2CCn3c(nnc3C(F)(F)F)C2)n1
cytotoxicity at 70.5 h: 4.03%

Cc1ccc(NC(=O)N(CCO)CCO)c(OCc2ccccc2)c1
cytotoxicity at 70.5 h: 10.5%

Cc1nnc(Cn2cc(I)cc(C)c2=O)o1
cytotoxicity at 70.5 h: 3.35%

CN1C(=O)CCN(C(=O)C2CCCCC2)c2ccccc21
cytotoxicity at 70.5 h: 9.73%

COc1ccc2c(ccn2CC(=O)N2CCCC2c2cnn(C)c2)c1 (stereo unspecified)
cytotoxicity at 70.5 h: 0.452%

N#Cc1c(Cl)nsc1NCCCN1C(=O)COc2ccccc21
cytotoxicity at 70.5 h: 8.75%

C1CCC(N2CCCN(c3nc(C4CC4)no3)CC2)C1
cytotoxicity at 70.5 h: 0.93%

C1CN(c2nc(C3CC3)no2)CCN(C2CCOCC2)C1
cytotoxicity at 70.5 h: -0.117%

CCCNC(=O)C(C)Nc1cccc(Oc2ccc(C#N)cn2)c1 (stereo unspecified)
cytotoxicity at 70.5 h: 24.3%

CNS(=O)(=O)CCCN1CCCN(Cc2ccccc2)CC1C (stereo unspecified)
cytotoxicity at 70.5 h: 14.3%

COC(=O)CCCNC(=O)Nc1ccccc1OC
cytotoxicity at 70.5 h: 12.5%

Cc1ccc(C)c(CS(=O)(=O)CC(=O)NC(C)c2ccc(F)cc2F)c1 (stereo unspecified)
cytotoxicity at 70.5 h: 8.01%

Cc1ccc(C)c(CS(=O)(=O)CC(=O)Nc2ccc(F)cc2F)c1
cytotoxicity at 70.5 h: -7.2%

O=C(CNC(=O)c1cnc2ccccc2c1O)NCCCn1ccnc1
cytotoxicity at 70.5 h: -16.5%

O=C(CCCNC(=O)Nc1ccc(F)cc1F)Nc1cn[nH]c1
cytotoxicity at 70.5 h: -5.08%

CN(CC(=O)NC(Cc1ccccc1)C1CCCC1)S(C)(=O)=O (stereo unspecified)
cytotoxicity at 70.5 h: -3.31%

COc1ccccc1NC(=O)NCCCC(=O)Nc1cn[nH]c1
cytotoxicity at 70.5 h: 13.3%

COc1cc(C(C#N)NC(=O)CC2=CCCCC2)cc(OC)c1OC (stereo unspecified)
cytotoxicity at 70.5 h: -5.49%

Cc1n[nH]cc1CNC1(c2ccc(F)cc2)CCCC1
cytotoxicity at 70.5 h: -7.33%

Cc1n[nH]cc1CNC1(Cc2ccc(Br)cc2)CCCCC1
cytotoxicity at 70.5 h: -1.97%

CCn1nc(C)cc1C(=O)N1CCOc2ccc(OC)cc21
cytotoxicity at 70.5 h: -4.62%

CNS(=O)(=O)c1csc(C(=O)NCc2sccc2C)c1
cytotoxicity at 70.5 h: -4.77%

CCCc1cc(NC(=O)c2cccc(N3CCCNC3=O)c2)n[nH]1
cytotoxicity at 70.5 h: -6.61%

CNS(=O)(=O)c1csc(C(=O)N(C)Cc2ccccc2C)c1
cytotoxicity at 70.5 h: 0.0278%

CC1CCN(CC(O)CNc2ccccn2)CC1 (stereo unspecified)
cytotoxicity at 70.5 h: -6.21%

CC1CCN(CC(O)CNc2ccc(Cl)cn2)CC1 (stereo unspecified)
cytotoxicity at 70.5 h: -1.66%

OC(CNc1ccc(Cl)cn1)CN1CCOCC1 (stereo unspecified)
cytotoxicity at 70.5 h: 2.86%

COc1ccc(C(C#N)NC(=O)Cc2ccc(F)c(F)c2)c(OC)c1 (stereo unspecified)
cytotoxicity at 70.5 h: -3.6%

CCn1nc(C(C)C)cc1C(=O)N1CCOc2ccc(OC)cc21
cytotoxicity at 70.5 h: -5.2%

CC(C)Cc1nc(CS(=O)(=O)c2ccccc2)no1
cytotoxicity at 70.5 h: -2.63%

Cc1nc(CN2CCC23CCN(Cc2ccoc2)CC3)cs1
cytotoxicity at 70.5 h: -6.82%

Cc1nc(CN2CCC23CCN(Cc2ccco2)CC3)cs1
cytotoxicity at 70.5 h: -5.68%

Cc1nc(CN2CCC3(C2)CN(Cc2ccco2)C3)cs1
cytotoxicity at 70.5 h: -3.68%

Cc1ccc(CNCC2Cn3nncc3CO2)s1 (stereo unspecified)
cytotoxicity at 70.5 h: -4.83%

COCC(=O)N1CC(C(=O)NCC2CC2)C2(CCOCC2)C1 (stereo unspecified)
cytotoxicity at 70.5 h: -3.19%

Cc1nnc([C@@]23CCO[C@@H]2CCN(S(=O)(=O)c2ccccc2)C3)o1
cytotoxicity at 70.5 h: -7.57%

O=C1CC[C@@H]2[C@@H](CCN2S(=O)(=O)C2CC2)N1CC1CC1
cytotoxicity at 70.5 h: 18.2%

CCC(=O)N1CCC2(C=C(C(=O)N(C)C)c3ccccc32)CC1
cytotoxicity at 70.5 h: 14%

CCC(=O)N1CCC2(C=C(C(=O)N3CCCC3)c3ccccc32)CC1
cytotoxicity at 70.5 h: 8.56%

COCCN1C(=O)CC[C@@H]2[C@H]1CCN2S(=O)(=O)c1cccs1
cytotoxicity at 70.5 h: 20.8%

Cc1noc([C@]23COC[C@H]2CN(C(=O)COC2CCCC2)C3)n1
cytotoxicity at 70.5 h: -5.12%

Cc1noc([C@]23COC[C@H]2CN(C(=O)N2CCCC2)C3)n1
cytotoxicity at 70.5 h: -6.89%

O=C(NCC1CC2(CO1)CN(c1nncs1)C2)C1CCC1 (stereo unspecified)
cytotoxicity at 70.5 h: -3.65%

Cc1ccc(N2CCc3ncnc(N(C)C)c3CC2)nn1
cytotoxicity at 70.5 h: -6.25%

COCC1c2nnn(C)c2CCN1C(=O)COc1ccccc1C (stereo unspecified)
cytotoxicity at 70.5 h: -4.54%

COC1COC2(CCN(C(=O)c3ccc4ccccc4c3)CC2)C1 (stereo unspecified)
cytotoxicity at 70.5 h: -4.73%

COc1ncccc1CN1Cc2nccn2CC(CN2CCCC2)C1 (stereo unspecified)
cytotoxicity at 70.5 h: -2.53%

COc1ncccc1CN1Cc2nccn2CC(Cn2cccn2)C1 (stereo unspecified)
cytotoxicity at 70.5 h: -5.37%

Cc1cc(CN2CC[C@H]3C[C@H](c4nc(C5CC5)cs4)O[C@@H]3C2)no1
cytotoxicity at 70.5 h: -4.1%

COCCN1C(=O)CC[C@@H]2[C@@H]1CCN2S(=O)(=O)C1CC1
cytotoxicity at 70.5 h: -3.21%

CCS(=O)(=O)N1CC[C@@H]2[C@H]1CCC(=O)N2CCOC
cytotoxicity at 70.5 h: -3.05%

CCOCC(=O)N1C[C@@H]2COC[C@]2(c2nc(C)no2)C1
cytotoxicity at 70.5 h: -7.6%

Cc1cc(CN2CC[C@@H]3O[C@@H](c4nnc(C)o4)C[C@H]3C2)no1
cytotoxicity at 70.5 h: -3.3%

COc1cc(N2CC[C@@H]3OCCN(C)[C@H]3CC2)ncn1
cytotoxicity at 70.5 h: -5.78%

CN(C)C(=O)CN1CCc2ncnc(N(C)C)c2CC1
cytotoxicity at 70.5 h: -6.04%

COCC1c2c(cnn2C)CCN1C(=O)c1cccn1C (stereo unspecified)
cytotoxicity at 70.5 h: -6.36%

O=C(NCC1CC2(CO1)CN(Cc1cccs1)C2)C1CCC1 (stereo unspecified)
cytotoxicity at 70.5 h: 19.9%

Cc1ccc(CN2Cc3nccn3CC(Cn3cccn3)C2)s1 (stereo unspecified)
cytotoxicity at 70.5 h: -4.41%

CC(=O)N1CCO[C@@H]2CN(Cc3ccccc3Cl)C[C@@H]2C1
cytotoxicity at 70.5 h: -5.68%

Cc1noc([C@]23COC[C@H]2CN(C(=O)CN(C)C)C3)n1
cytotoxicity at 70.5 h: -4.74%

CC(C)C(=O)N1CCCC2(C1)CN(c1nncs1)CCO2 (stereo unspecified)
cytotoxicity at 70.5 h: -2.65%

Cn1ccc(CN2CCC3(CCCN3CC3CC3)CC2)n1
cytotoxicity at 70.5 h: -6.07%

Cn1cc(CN2C[C@H]3CCC[C@@]3(COc3ccccn3)C2)cn1
cytotoxicity at 70.5 h: -3.17%

CN(Cc1ccccn1)C(=O)[C@H]1CO[C@H]2CCN(CC3CC3)C[C@H]2C1
cytotoxicity at 70.5 h: -5.92%
